This note sets out measurements from paper PMC12040169 (PLOS Biology, 2025).

The nature of the data set: in vitro. The following applies: human, hela cells, % viability.
The viability is a read-out of living cells in per cent, often relative to untreated cells. In the case of `O=C(c1ccccc1)N1CCCC1c1n[nH]cc1-c1ccncc1` (centres unmarked) [CBK283433], the viability at 28.5 h, 10 µM stood at 88.5%. Regarding `O=C(Cc1ccccc1)N1CCCC1c1n[nH]cc1-c1ccncc1` (centres unmarked) [CBK283435], the viability at 28.5 h, 10 µM turned out to be 85.7%. In the case of `Cc1cc(O)cc(C2CCCN(C(=O)c3cccc(F)c3)C2)n1` (centres unmarked) [CBK283440] it was 100%; in that of `Cn1ccnc1C(=O)N1C[C@H]2CCc3c(n[nH]c3C(F)(F)F)[C@H]2C1` [CBK283441], 101%; in that of `Cc1cc(Oc2ccc(N(C)C)cc2)cc(C2CCCNC2)n1` (centres unmarked) [CBK283442], 101%. Under `Cn1cc(-c2ccncc2)c(C2CCCCN2C(=O)c2ccccc2)n1` (centres unmarked) [CBK283444] stands 75.7%; under `O=C(c1ccc(F)cc1)N1CCC(c2cc3cnccc3[nH]2)CC1` [CBK283445], 87.3%. Turning to `CN(C)c1ccc(C(=O)N2CCC(c3cc4cnccc4[nH]3)CC2)cc1` [CBK283446], the viability at 28.5 h, 10 µM amounted to 83.8%. On to `O=C(COc1ccccc1)N1CCC(c2cc3cnccc3[nH]2)CC1` [CBK283449], for which the viability at 28.5 h, 10 µM came to 97.6%. As for `COCCC(=O)N1C[C@@H](c2cccc(F)c2)[C@@]2(CCCC(=O)N2)C1` [CBK283450], the viability at 28.5 h, 10 µM is 88.1%. In the case of `CCC(CC)C(=O)N1CCCC1c1nn(C)cc1-c1cc(C)no1` (centres unmarked) [CBK283452] it was 84.5%; in that of `Cc1cc(-c2cn(C)nc2C2CCCN2C(=O)CC(C)(C)C)on1` (centres unmarked) [CBK283453], 87.3%. As for `COc1ccccc1C(=O)N1CCC[C@@H](N)[C@@H]1c1ccccc1F` [CBK283458], the viability at 28.5 h, 10 µM amounted to 86%. Under `N[C@@H]1CCCN(Cc2ccncc2)[C@H]1c1ccccc1F` [CBK283459] stands 88.4%; under `Cc1ncsc1C(=O)N1CCCC(c2cc3cnccc3[nH]2)C1` (centres unmarked) [CBK283461], 94%; under `CC(C)(C)OC(=O)N1CCC[C@]2(CCC(=O)N2)[C@H]1c1ccc(F)cc1` [CBK283462], 86.1%.

As for `Fc1ccc(-c2c[nH]nc2C2CCOCC2)cc1` [CBK283464], the viability at 28.5 h, 10 µM came out at 103%. For `Fc1cccc(-c2c[nH]nc2C2CCOCC2)c1` [CBK283465], the viability at 28.5 h, 10 µM was determined as 91%.

Turning to `CCC(CC)C(=O)N1CCCC1c1n[nH]cc1-c1ccncc1` (centres unmarked) [CBK283467], the viability at 28.5 h, 10 µM came out at 87.9%. As to `CC(=O)N1CCCC(c2[nH]c3cccnc3c2CN(C)C)C1` (centres unmarked) [CBK283469], the viability at 28.5 h, 10 µM was 89.1%.

Consider `CN(C)Cc1cc(-c2ccccc2F)nn1CCNC(=O)C1CCC1` [CBK283471], for which the viability at 28.5 h, 10 µM was determined as 93.1%. As for `Cc1cccc(CC(=O)N2CCCC2c2ccnc3cc(C)nn23)c1` (centres unmarked) [CBK283472], the viability at 28.5 h, 10 µM is 105%.

`CN1C(=O)c2ccccc2C(=O)[C@@]2(C)CN(C3CCCC3)C[C@@H]12` [CBK283476]: the viability at 28.5 h, 10 µM is 83.3%. As for `CCN1C(=O)c2ccccc2C(=O)[C@@]2(C)CN(CC(C)C)C[C@@H]12` [CBK283479], the viability at 28.5 h, 10 µM was 102%. With `CN1C[C@H]2N(C)C(=O)c3ccccc3C(=O)[C@@]2(C)C1` [CBK283482], the viability at 28.5 h, 10 µM came to 86.7%. Under `CN(C(=O)C1CCCO1)c1nc2c(s1)CCc1occc1-2` (centres unmarked) [CBK283483] stands 88.8%.

`COc1ccc(NCc2cc3sccc3n2C)cc1OC` [CBK283486]: the viability at 28.5 h, 10 µM was 87%. Take `Fc1ccc(CNc2c(-c3cccs3)nc3cnccn23)cc1` [CBK283487]: the viability at 28.5 h, 10 µM came out at 112%. Under `O=C1NC2=C(C(=O)N(CCN3CCCC3)C2)C(c2ccccc2)N1` (centres unmarked) [CBK283493] stands 103%; under `c1coc(CNc2c(-c3ccco3)nc3cnccn23)c1` [CBK283496], 103%; under `O=C(CN1CCC(O)(Cc2ccccc2)CC1)N1CCCCCC1` [CBK283500], 96.9%. Under `O=C(CN1CCC(c2ccc(F)cc2)CC1)N1CCCC1` [CBK283502] stands 98.7%; under `CCN(CC)C(=O)N1CCC(c2ccncc2)CC1` [CBK283503], 101%; under `O=C(CN1CCC(c2ccncc2)CC1)N1CCCCC1` [CBK283504], 102%. Turning to `c1ccc(CN2CCC(c3ccncc3)CC2)nc1` [CBK283505], the viability at 28.5 h, 10 µM came to 101%.

With `O=C(c1cccnc1)C1CCN(C(=O)Cc2cccc(F)c2)CC1` [CBK283506], the viability at 28.5 h, 10 µM stood at 101%. In the case of `COC(=O)[C@H]1CN(C(=O)CN2CCCC2=O)C[C@@H]1c1ccc(F)cc1` [CBK283507], the viability at 28.5 h, 10 µM stood at 93.3%. Under `CCn1cc(C(=O)N2C[C@H](C(=O)OC)[C@@H](c3ccccc3F)C2)cn1` [CBK283510] stands 94.2%; under `CC(C)c1nccn1CCC(=O)N1CCC(c2ccncc2)CC1` [CBK283512], 105%; under `Cc1nc2cc(C(=O)N3CCC(c4ccncc4)CC3)ccc2s1` [CBK283513], 85.7%. In the case of `O=C(c1cccnc1)C1CCN(C(=O)Cc2ccc(F)cc2)CC1` [CBK283515] it was 90.5%; in that of `COC(=O)[C@H]1CN(C(=O)Cc2ccccn2)C[C@@H]1c1ccc(F)cc1` [CBK283519], 93.8%. Under `COC(=O)[C@H]1CN(C(=O)c2scnc2C)C[C@@H]1c1ccc(F)cc1` [CBK283520] stands 104%; under `COC(=O)[C@H]1CN(C(=O)C2CC(=O)N(C)C2)C[C@@H]1c1ccc(F)cc1` (some centres unmarked) [CBK283521], 93%; under `O=C(CCn1cnc2ccccc21)N1CCC(c2ccncc2)CC1` [CBK283522], 102%. For `CCC(C(=O)N1CCC(C(=O)c2cccnc2)CC1)c1ccccc1` (centres unmarked) [CBK283525], the viability at 28.5 h, 10 µM came to 91.1%. For `O=C(c1cccnc1)C1CCN(C(=O)c2cccs2)CC1` [CBK283528], the viability at 28.5 h, 10 µM amounted to 102%.

Turning to `Cc1cc(C)n(CCC(=O)N2CCC(c3ccncc3)CC2)n1` [CBK283529], the viability at 28.5 h, 10 µM was 94.1%. Under `Cc1ncsc1C(=O)N1CCCCC1c1nc2ccccc2[nH]1` (centres unmarked) [CBK283531] stands 95.9%; under `CC(c1ccccc1)c1nc2cnccn2c1NC(C)(C)C` (centres unmarked) [CBK283533], 92.3%. For the molecule `COCCn1c(=O)n(CC=C(C)C)c2cccnc21` [CBK283534], the viability at 28.5 h, 10 µM was determined as 92.1%. Under `Cn1ccnc1C1(O)CCN(C(=O)c2ccccc2F)CC1` [CBK283536] stands 105%; under `O=C(Cc1cccnc1)N1CCC(O)(c2cccc(F)c2)CC1` [CBK283537], 95.9%. For the molecule `Cc1ccc2cc3c(nc2c1)OCC(=O)N(Cc1ccco1)C3` [CBK283539], the viability at 28.5 h, 10 µM amounted to 92.9%. Take `c1coc(CNc2c(-c3cccs3)nc3cnccn23)c1` [CBK283540]: the viability at 28.5 h, 10 µM was determined as 93.2%. With `Cn1ccnc1C1(O)CCN(C(=O)CCc2ccccc2)CC1` [CBK283542], the viability at 28.5 h, 10 µM turned out to be 92%.

Turning to `Cn1ccnc1C1(O)CCN(C(=O)c2cc(F)cc(F)c2)CC1` [CBK283544], the viability at 28.5 h, 10 µM came to 102%.

Take `O=C(C1CCC1)N1C2CCC1CC(O)(c1ccc(F)cc1)C2` (centres unmarked) [CBK283547]: the viability at 28.5 h, 10 µM came to 92.5%. Consider `O=C(CN1CCC(c2ccccc2F)CC1)NCc1ccco1` [CBK283550], for which the viability at 28.5 h, 10 µM came out at 88.3%.

As for `O=C(CN1CCC(c2ccccc2F)CC1)NC1CCCC1` [CBK283551], the viability at 28.5 h, 10 µM came out at 97.4%. In the case of `Cn1ccnc1C1(O)CCN(C(=O)c2ccc(F)cc2F)CC1` [CBK283552] it was 103%; in that of `O=C(c1cccc(Cl)c1)N1CCC(O)(c2cccnc2)CC1` [CBK283553], 93.2%. Under `O=C(Cn1ncc2cccn2c1=O)OCC(F)(F)F` [CBK283554] stands 93.7%; under `Cc1nn(CC(=O)N2C(C)CCCC2C)c(=O)c2cc3occc3n12` (centres unmarked) [CBK283555], 80.8%; under `Cc1ccc(C2=CCN(CC(=O)N3CCCCC3C)CC2)o1` (centres unmarked) [CBK283556], 86.8%. In the case of `COc1ccc(C2CCN(CC(=O)NC(C)(C)C)CC2)cc1` [CBK283558] it was 92.7%; in that of `CCN(CC)C(=O)CN1CCC(c2ccc(OC)cc2)CC1` [CBK283559], 102%; in that of `C=CCNC(=O)CN1CCC(c2ccc(OC)cc2)CC1` [CBK283560], 106%. Turning to `COc1ccc(C2CCN(CC(=O)N3CCCC3)CC2)cc1` [CBK283561], the viability at 28.5 h, 10 µM is 101%. Regarding `COc1ccc(C2CCN(Cc3cccnc3)CC2)cc1` [CBK283564], the viability at 28.5 h, 10 µM came to 96.1%. In the case of `Cc1ccc(C2=CCN(S(=O)(=O)c3ccc(F)cc3)CC2)o1` [CBK283571] it was 93%; in that of `COc1ccc(CC(=O)N2CC=C(c3ccc(C)o3)CC2)cc1` [CBK283572], 92.4%; in that of `O=C(Cc1ccc(F)cc1)N1CCC(n2cnc3cccnc32)CC1` [CBK283574], 91.1%. Under `CCc1nn(CC(=O)N(C)C)c(=O)c2cc3oc(C)cc3n12` [CBK283576] stands 114%. In the case of `O=C(CN1CCC(c2ccccc2F)CC1)Nc1nccs1` [CBK283579] it was 106%; in that of `CC(c1cccc(F)c1)n1cc(C(=O)NCCc2ccco2)nn1` (centres unmarked) [CBK283582], 102%. Consider `CCc1nn(CC(=O)N2CCCC2)c(=O)c2cc3oc(C)cc3n12` [CBK283584], for which the viability at 28.5 h, 10 µM was 110%.

Take `Cn1ccnc1C1(O)CCN(C(=O)Cc2ccccc2F)CC1` [CBK283585]: the viability at 28.5 h, 10 µM was determined as 97.6%. Under `O=C(Cc1cccc(F)c1)N1CCC(O)(c2ccccn2)CC1` [CBK283586] stands 100%; under `O=C(Cc1cccs1)N1CCC(O)(c2ccccn2)CC1` [CBK283587], 96.4%; under `O=C(Cc1ccc(F)cc1)N1CCC(O)(c2ccccn2)CC1` [CBK283588], 97%. Regarding `Cc1cc2c(cc3c(=O)n(CC(=O)N4CCC(C)CC4)nc(C)n32)o1` [CBK283590], the viability at 28.5 h, 10 µM was found to be 90.1%. For the molecule `Cc1nc2cccnc2n1CCNC(=O)Cc1cccs1` [CBK283592], the viability at 28.5 h, 10 µM stood at 107%.
